Values quoted from earlier work in patent US10695437B2, “Polycomplexes of poly-lysine compounds for preventing and/or combatting amyotrophic lateral sclerosis” (GEMAC, priority 2016, dated 2020).

Test system: ALS
Conditions: ALS patients

## Nc1nc2ccc(OC(F)(F)F)cc2s1 [Riluzole]
  Side effects: numerous side effects (liver toxicity)
